According to patent US8673617B2, “Culture medium for Haemophilus influenzae type B” (Sanofi Pasteur SA, priority 2007, dated 2014):

Tests used:
[1] = tested on: Haemophilus influenzae serotype b; test: PRP production in liquid garden pea peptone-based culture medium as a function of heme source (sandwich ELISA on supernatant); type: cell-based; conditions: for Mean PRP / PRP in mg/l Assay 1 / PRP in mg/l Assay 2: garden pea medium, 16 h
Method: The production of PRP obtained after 16 hours of bacterial culture in liquid plant peptones-based culture media in which the heme source was either hemin or protoporphyrin IX of animal origin (porcine protoporphyrin) in disodium salt form, or protoporphyrin IX of purely synthetic origin in disodium salt form was compared. […] An enzymatic hydrolysate of garden pea peptone provided by Kerry (Hy pea 7404) and a wheat peptone provided by Organotechnie (19559) were tested at a concentration in the culture medium equivalent to 0.87 g/l of protein nitrogen. By reference to the current methods for the production of PRP, PRP production was also measured in a medium that contains a peptone of animal origin, such as casein hydrolysate (HAC) provided by Solabia at a concentration in the medium equivalent to 0.87 g/l with increased concentrations of hemin (see table III).
(§1) 1.1) Preparation of the Media • 1.1.1. Stock solution of β-NAD (Fluka) at 1 g/l in water which was ultrafiltered and then sterilized by filtration through 0.22 μm. • 1.1.2. Stock solution of hemin (Sigma) at 0.25 g/l in water was ultrafiltered, comprising 5 ml of 25% aqueous ammonia (Cooper) to aid dissolution. The stock solution was sterilized by filtration through 0.22 μm. • 1.1.3. Stock solution of porcine protoporphyrin IX (Sigma) at 0.25 g/l in ultrafiltered water comprising 5 ml of 25% aqueous ammonia (Cooper) in order to facilitate the dissolution. The stock solution was sterilized by filtration through 0.22 μm. • 1.1.4. Stock solution of synthetic protoporphyrin IX at 0.25 g/l in ultrafiltered water comprising 5 ml of 25% aqueous ammonia (Cooper) in order to facilitate the dissolution. The stock solution was also heated to 80° C. in a water bath with stirring in order to complete the dissolution before being sterilized by filtration through 0.22 μm. The protoporphyrin IX, in disodium salt form, was synthesized according to the method described in the U.S. provisional patent application Ser. No. 12/057,574, filed Mar. 28, 2008 and application Ser. No. 60/943,735 and filed on Jun. 13, 2007 using the steps which are described in scheme 2. • The stock solutions of hemin and protoporphyrin IX were checked for their respective contents of active compounds after sterilizing filtration. The protoporphyrin IX and hemin contents were determined by Reversed Phase High Performance Liquid Chromatography (RP-HPLC). The chromatographic chain comprises a twin head pump module allowing the formation of a binary gradient, a programmable automatic injector, a diode array UV detector and a chromatographic column of the type Synergi 4 μm, Polar RP-80A (150×4.6) mm, ref 00F-4336-E0, Phenomenex. • The stock solution of hemin (Sigma) to be checked after filtration was diluted ⅓ in distilled water. The stock solutions of porcine protoporphyrin IX (Sigma) and of synthetic protoporphyrin IX to be checked after filtration were diluted ¼ in distilled water. In parallel, a calibration series was prepared in ammoniated water ranging from 0.025 g/l to 0.125 g/l of protoporphyrin IX from porcine protoporphyrin IX from Sigma (ref: 25838-5) and a calibration series ranging from 0.050 g/l to 0.150 g/l of hemin from hemin from Sigma (ref: H5533-256). The samples to be checked and the various solutions of the calibration series were injected in a volume of 20 μl (for the hemin solutions and samples) and of 5 μl (for the protoporphyrin IX solutions and samples). The initial mobile phase consisting of a volume for volume mixture of acetonitrile and 10 mM KH2PO4 pH 2.5 is set at a flow rate of 1 ml/min. A discontinuous gradient was then produced from this mobile phase in order to separate the molecules of interest which are detected at a wavelength of 400 nm. […]

[2] = tested on: Haemophilus influenzae serotype b; test: PRP production in liquid wheat peptone-based culture medium as a function of heme source (sandwich ELISA on supernatant); type: cell-based; conditions: for Mean PRP / PRP in mg/l Assay 1 / PRP in mg/l Assay 2: wheat medium, 16 h
Method: The production of PRP obtained after 16 hours of bacterial culture in liquid plant peptones-based culture media in which the heme source was either hemin or protoporphyrin IX of animal origin (porcine protoporphyrin) in disodium salt form, or protoporphyrin IX of purely synthetic origin in disodium salt form was compared. The hemin and protoporphyrin IX concentration ranges in the culture media varied from about 0.010 g/l to about 2 g/l so as to obtain PRP titration curves as a function of the heme source tested and as a function of the plant peptone tested. An enzymatic hydrolysate of garden pea peptone provided by Kerry (Hy pea 7404) and a wheat peptone provided by Organotechnie (19559) were tested at a concentration in the culture medium equivalent to 0.87 g/l of protein nitrogen. By reference to the current methods for the production of PRP, PRP production was also measured in a medium that contains a peptone of animal origin, such as casein hydrolysate (HAC) provided by Solabia at a concentration in the medium equivalent to 0.87 g/l with increased concentrations of hemin (see table III).
as §1

[3] = synthetic protoporphyrin IX 9.96 μg/l
[4] = synthetic protoporphyrin IX 49.8 μg/l
[5] = synthetic protoporphyrin IX 99.6 μg/l
[6] = synthetic protoporphyrin IX 249 μg/l
[7] = synthetic protoporphyrin IX 498 μg/l
[8] = synthetic protoporphyrin IX 996 μg/l
[9] = synthetic protoporphyrin IX 1494 μg/l
[10] = synthetic protoporphyrin IX 1992 μg/l
[11] = porcine protoporphyrin IX 7.48 μg/l
[12] = porcine protoporphyrin IX 37.4 μg/l
[13] = porcine protoporphyrin IX 74.8 μg/l
[14] = porcine protoporphyrin IX 187 μg/l
[15] = porcine protoporphyrin IX 374 μg/l
[16] = porcine protoporphyrin IX 748 μg/l
[17] = porcine protoporphyrin IX 1122 μg/l
[18] = porcine protoporphyrin IX 1496 μg/l

## protoporphyrin IX
[1]; garden pea peptone and protoporphyrin IX-based medium
  protoporphyrin IX concentration to obtain about 400 mg/l of PRP: about 100 μg/l
[1]; garden pea peptone medium
  times less protoporphyrin IX than hemin required for maximum PRP production: About 12.5 times
[1]; garden pea peptone medium (FIG. 1)
  heme source concentration required for optimum / maximum PRP production: about 200 μg/l
[1]; garden pea peptone medium, about 200 μg/l
  optimum PRP production: ≈ 480 mg/l
[1]; plant peptone medium, 100 to 200 μg/l
  PRP concentration in the culture supernatant at maximum production: 0.4 g/L
[1]; plant peptone medium, heme source at 10 μg/l
  production of PRP (in words): significant production of PRP
[1]; plant peptone medium, heme source at 50 μg/l (FIGS. 1 and 2)
  production of PRP: ≥ 100 µg/L
[2]; wheat peptone and protoporphyrin IX-based medium
  protoporphyrin IX concentration to obtain about 400 mg/l of PRP: about 100 μg/l
[2]; wheat peptone medium
  times less protoporphyrin IX than hemin required for maximum PRP production: About 15 times
[2]; wheat peptone medium (FIG. 2)
  heme source concentration required for optimum / equivalent PRP production: about 100 μg/l
[2]; wheat peptone medium, about 100 μg/l
  optimum PRP production: ≈ 400 mg/l

## protoporphyrin IX [Synthetic protoporphyrin IX]
[1]; [3]
  Mean PRP: 11.55 mg/L
  PRP in mg/l Assay 1: 11.3 mg/L
  PRP in mg/l Assay 2: 11.8 mg/L
[1]; [4]
  Mean PRP: 136.5 mg/L
  PRP in mg/l Assay 1: 139 mg/L
  PRP in mg/l Assay 2: 134 mg/L
[1]; [5]
  Mean PRP: 356.5 mg/L
  PRP in mg/l Assay 1: 330 mg/L
  PRP in mg/l Assay 2: 383 mg/L
[1]; [6]
  Mean PRP: 488 mg/L
  PRP in mg/l Assay 1: 474 mg/L
  PRP in mg/l Assay 2: 502 mg/L
[1]; [7]
  Mean PRP: 387.5 mg/L
  PRP in mg/l Assay 1: 383 mg/L
  PRP in mg/l Assay 2: 392 mg/L
[1]; [8]
  Mean PRP: 499 mg/L
  PRP in mg/l Assay 1: 524 mg/L
  PRP in mg/l Assay 2: 474 mg/L
[1]; [9]
  Mean PRP: 513 mg/L
  PRP in mg/l Assay 1: 503 mg/L
  PRP in mg/l Assay 2: 523 mg/L
[1]; [10]
  Mean PRP: 488.5 mg/L
  PRP in mg/l Assay 1: 480 mg/L
  PRP in mg/l Assay 2: 497 mg/L
[2]; [3]
  Mean PRP: 30.7 mg/L
  PRP in mg/l Assay 1: 33.5 mg/L
  PRP in mg/l Assay 2: 27.9 mg/L
[2]; [4]
  Mean PRP: 318 mg/L
  PRP in mg/l Assay 1: 317 mg/L
  PRP in mg/l Assay 2: 319 mg/L
[2]; [5]
  Mean PRP: 413 mg/L
  PRP in mg/l Assay 1: 389 mg/L
  PRP in mg/l Assay 2: 437 mg/L
[2]; [6]
  Mean PRP: 347.5 mg/L
  PRP in mg/l Assay 1: 345 mg/L
  PRP in mg/l Assay 2: 350 mg/L
[2]; [7]
  Mean PRP: 394.5 mg/L
  PRP in mg/l Assay 1: 380 mg/L
  PRP in mg/l Assay 2: 409 mg/L
[2]; [8]
  Mean PRP: 402.5 mg/L
  PRP in mg/l Assay 1: 401 mg/L
  PRP in mg/l Assay 2: 404 mg/L
[2]; [9]
  Mean PRP: 354 mg/L
  PRP in mg/l Assay 1: 358 mg/L
  PRP in mg/l Assay 2: 350 mg/L
[2]; [10]
  Mean PRP: 404 mg/L
  PRP in mg/l Assay 1: 378 mg/L
  PRP in mg/l Assay 2: 430 mg/L

## protoporphyrin IX [Porcine protoporphyrin IX]
[1]; [11]
  Mean PRP: 15.6 mg/L
  PRP in mg/l Assay 1: 15.1 mg/L
  PRP in mg/l Assay 2: 16.1 mg/L
[1]; [12]
  Mean PRP: 146 mg/L
  PRP in mg/l Assay 1: 143 mg/L
  PRP in mg/l Assay 2: 149 mg/L
[1]; [13]
  Mean PRP: 349 mg/L
  PRP in mg/l Assay 1: 344 mg/L
  PRP in mg/l Assay 2: 354 mg/L
[1]; [14]
  Mean PRP: 470 mg/L
  PRP in mg/l Assay 1: 450 mg/L
  PRP in mg/l Assay 2: 490 mg/L
[1]; [15]
  Mean PRP: 423.5 mg/L
  PRP in mg/l Assay 1: 415 mg/L
  PRP in mg/l Assay 2: 432 mg/L
[1]; [16]
  Mean PRP: 509 mg/L
  PRP in mg/l Assay 1: 495 mg/L
  PRP in mg/l Assay 2: 523 mg/L
[1]; [17]
  Mean PRP: 521 mg/L
  PRP in mg/l Assay 1: 492 mg/L
  PRP in mg/l Assay 2: 550 mg/L
[1]; [18]
  Mean PRP: 479 mg/L
  PRP in mg/l Assay 1: 466 mg/L
  PRP in mg/l Assay 2: 493 mg/L
[2]; [11]
  Mean PRP: 26.9 mg/L
  PRP in mg/l Assay 1: 25.5 mg/L
  PRP in mg/l Assay 2: 28.3 mg/L
[2]; [12]
  Mean PRP: 142.5 mg/L
  PRP in mg/l Assay 1: 136 mg/L
  PRP in mg/l Assay 2: 149 mg/L
[2]; [13]
  Mean PRP: 364 mg/L
  PRP in mg/l Assay 1: 429 mg/L
  PRP in mg/l Assay 2: 299 mg/L
[2]; [14]
  Mean PRP: 430 mg/L
  PRP in mg/l Assay 1: 452 mg/L
  PRP in mg/l Assay 2: 408 mg/L
[2]; [15]
  Mean PRP: 385.5 mg/L
  PRP in mg/l Assay 1: 397 mg/L
  PRP in mg/l Assay 2: 374 mg/L
[2]; [16]
  Mean PRP: 388 mg/L
  PRP in mg/l Assay 1: 399 mg/L
  PRP in mg/l Assay 2: 377 mg/L
[2]; [17]
  Mean PRP: 387.5 mg/L
  PRP in mg/l Assay 1: 446 mg/L
  PRP in mg/l Assay 2: 329 mg/L
[2]; [18]
  Mean PRP: 373.5 mg/L
  PRP in mg/l Assay 1: 464 mg/L
  PRP in mg/l Assay 2: 283 mg/L
